Assay results published in article PMC11509018, “Evaluation of the Role of Tanshinone I in an In Vitro System of Charcot-Marie-Tooth Disease Type 2N” (International Journal of Molecular Sciences, 2024).

Target: T1, AlaRS E337K binding to GST-Nrp1 b1 (Homo sapiens, UniProt P49588, E337K)
T1 construct: made in house; host or cells: E. coli BL21 (DE3), pET-21a for AlaRS
T1 sequence (P49588 1-968 E337K): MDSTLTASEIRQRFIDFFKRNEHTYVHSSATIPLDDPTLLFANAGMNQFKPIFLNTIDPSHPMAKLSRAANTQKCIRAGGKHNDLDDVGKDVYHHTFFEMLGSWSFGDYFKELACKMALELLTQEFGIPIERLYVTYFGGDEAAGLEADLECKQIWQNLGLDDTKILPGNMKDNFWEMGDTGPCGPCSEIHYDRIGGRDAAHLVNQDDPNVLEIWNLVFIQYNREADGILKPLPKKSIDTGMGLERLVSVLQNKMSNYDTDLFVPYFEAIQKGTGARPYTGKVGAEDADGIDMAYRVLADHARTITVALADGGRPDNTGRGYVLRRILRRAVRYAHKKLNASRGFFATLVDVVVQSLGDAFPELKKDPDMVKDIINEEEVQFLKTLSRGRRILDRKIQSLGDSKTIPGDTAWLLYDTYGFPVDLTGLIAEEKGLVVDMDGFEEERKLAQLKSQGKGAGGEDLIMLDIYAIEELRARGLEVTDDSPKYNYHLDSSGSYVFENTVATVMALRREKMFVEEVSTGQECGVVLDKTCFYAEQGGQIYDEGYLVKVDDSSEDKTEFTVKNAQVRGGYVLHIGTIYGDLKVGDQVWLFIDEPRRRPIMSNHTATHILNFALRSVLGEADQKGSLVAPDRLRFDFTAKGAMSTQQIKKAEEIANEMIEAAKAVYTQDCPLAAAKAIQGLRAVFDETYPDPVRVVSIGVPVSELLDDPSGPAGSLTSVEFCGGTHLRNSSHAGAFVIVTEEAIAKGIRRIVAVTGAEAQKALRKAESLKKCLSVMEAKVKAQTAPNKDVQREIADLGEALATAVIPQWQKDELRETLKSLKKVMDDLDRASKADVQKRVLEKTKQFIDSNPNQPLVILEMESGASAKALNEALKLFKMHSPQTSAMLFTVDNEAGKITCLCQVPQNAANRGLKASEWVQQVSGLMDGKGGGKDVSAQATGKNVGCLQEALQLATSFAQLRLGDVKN
Test: GST pull down assay
Details: 20 µM Tanshinone I, ImageJ, average of three repeats

Mean density band (E337K), relative quantification of AlaRS mutant pulled down: 0.90
Structure (SMILES): Cc1coc2c1C(=O)C(=O)c1c-2ccc2c(C)cccc12 [Tanshinone I]
